These results are taken from ChEMBL document CHEMBL4651402, “Screening of ~5500 FDA-approved drugs and clinical candidates for anti-SARS-CoV-2 activity” (2021).

The test system of the first test is SARS-CoV-2. In words: microbe, parasite or virus in culture. The conditions noted are these: Severe acute respiratory syndrome coronavirus 2, Vero C1008, 48 h.
For the molecule `Cc1cc(C)cc([C@@H]2CCCN2Cc2ccc(Oc3ccc(C(N)=O)cc3F)cc2)c1` [ATICAPRANT], the IC50 is over 20 µM.
Still for that read-out and setting: as for `CCC(C(=O)O)c1ccc(-c2ccccc2)cc1` (centres undefined) [XENBUCIN], the figure is over 20 µM.
For the molecule `O=C1CN(/N=C/c2ccc(-c3ccc([N+](=O)[O-])cc3)o2)C(=O)N1` [DANTROLENE], the IC50 was over 20 µM.
As to `COc1cc(NS(=O)(=O)c2ccc(N)cc2)ncn1` [SULFAMONOMETHOXINE], the IC50 is over 20 µM.
In turn, `Cc1ccc([C@@H]2O[C@H](CO)[C@@H](O)[C@H](O)[C@H]2O)cc1Cc1ccc(-c2ccc(F)cc2)s1` [CANAGLIFLOZIN ANHYDROUS] yielded an IC50 of over 20 µM.
Still for that read-out and setting: for `C[C@@H]1O[C@@H](O[C@H]2[C@H](Oc3cc(O)c4c(c3)O[C@H](c3ccc(O)cc3)CC4=O)O[C@H](CO)[C@@H](O)[C@@H]2O)[C@H](O)[C@H](O)[C@H]1O` [NARINGIN] the value was over 20 µM.
Same read-out and setting: for `COc1ccc2[nH]c([S+]([O-])Cc3ncc(C)c(OC)c3C)nc2n1` (centres undefined) [TENATOPRAZOLE] the value was over 20 µM; for `O=C1CCC(c2ccc(-n3ccnc3)cc2)=NN1` [IMAZODAN], over 20 µM; for `O=C(Nc1ccccc1F)N[C@@H]1N=C(c2ccccc2)c2ccccc2NC1=O`, over 20 µM.
`COc1ccc(Cl)cc1NC(=O)Cc1ccc(S(=O)(=O)Nc2ncc(CC(C)C)cn2)cc1` showed an IC50 of over 20 µM.
In the case of `CCC(=O)O` [PROPIONIC ACID], the IC50 was over 20 µM.
Consider `CCC1(c2ccc(N)cc2)CCC(=O)NC1=O` (centres undefined) [AMINOGLUTETHIMIDE], for which the IC50 was over 20 µM.
Same read-out and setting: as for `O=C1C=C2C=C[C@@H]3C[C@@]2(O1)[C@H]1CCCCN31` [SECURININE], the figure is over 20 µM; as for `CNCC(O)c1ccc(O)c(OC)c1` (centres undefined) [METANEPHRINE], over 20 µM; as for `OC(c1ccccc1)(c1ccccc1)[C@@H]1C[C@H]1c1ccncc1`, over 20 µM.
The same measure, in the same setting: for `O=C(O)c1ccccn1` [2-PICOLINIC ACID] the value was over 20 µM.
`CC(C)c1ncc([N+](=O)[O-])n1C` [IPRONIDAZOLE]: the IC50 is over 20 µM.
In the case of `OC(CCN1CCCCC1)(c1ccccc1)C1C[C@@H]2C=C[C@H]1C2` (some centres undefined), the IC50 was over 20 µM.
The same measure, in the same setting: for `O=NN(CCCl)C(=O)NC1CCCCC1` [LOMUSTINE] the value was over 20 µM; for `CC(C)(N)Cc1ccc(Cl)cc1` [CHLORPHENTERMINE], over 20 µM.
Turning to `CCC(Br)(CC)C(=O)NC(N)=O` [CARBROMAL], the IC50 is over 20 µM.
`CC(=O)Nc1c(I)cc(I)c(C(=O)O)c1I` [ACETRIZOIC ACID]: the IC50 was over 20 µM.
The same measure, in the same setting: for `O=[N+]([O-])c1cccc2cn[nH]c12` [7-NITROINDAZOLE] the value was over 20 µM; for `CN(C)C1CC(c2ccccc2)c2ccccc21` (centres undefined), over 20 µM.
Same read-out and setting: as for `NC(=O)c1cnccn1` [PYRAZINAMIDE], the figure is over 20 µM; as for `CCOC(=O)C1=C(C)NC(C)=C(C(=O)OCC)C1c1cccnc1SC` [MESUDIPINE], over 20 µM; as for `Cn1c([N+](=O)[O-])cnc1/C=C/c1ccnc(N)n1` [AZANIDAZOLE], over 20 µM.
Take `c1ccc2c(c1)CCc1cccc3c1C2CN1CCCCC31` (centres undefined) [TACLAMINE]: the IC50 is over 20 µM.
With `CC[N+](CC)(CC)CCC(O)(c1ccccc1)C1CCCCC1` (centres undefined) [TRIDIHEXETHYL], the IC50 is over 20 µM.
On the same count and under the same terms, for `CCOc1ccc(Cc2cc([C@@H]3O[C@H](CO)[C@@H](O)[C@H](O)[C@H]3O)ccc2Cl)cc1` [DAPAGLIFLOZIN] the value was over 20 µM; for `CC(C)(C)CC(C)(C)c1ccc(O)c(Cc2ccc(Cl)cc2Cl)c1` [CLOFOCTOL], over 20 µM.
Turning to `O=C(O)COc1nn(Cc2ccccc2)c2ccccc12` [BENDAZAC], the IC50 is over 20 µM.
Still for that read-out and setting: as for `O=C(O)CCCc1ccc(N(CCCl)CCCl)cc1` [CHLORAMBUCIL], the figure is over 20 µM.
In turn, `O=C1C(O)=C([C@H]2CC[C@H](c3ccc(Cl)cc3)CC2)C(=O)c2ccccc21` [ATOVAQUONE] yielded an IC50 of over 20 µM.
The same measure, in the same setting: for `Cc1ccnc(N)c1` the value was over 20 µM; for `O=[N+]([O-])c1ccc(O)c([N+](=O)[O-])c1` [2,4-DINITROPHENOL], over 20 µM.
On the same count and under the same terms, as for `O=C1NS(=O)(=O)c2ccccc21` [SACCHARIN], the figure is over 20 µM; as for `COC(=O)C1=C(C)NC(C)=C(C(=O)OC(C)(C)CN(C)CCC(c2ccccc2)c2ccccc2)C1c1cccc([N+](=O)[O-])c1` (centres undefined) [LERCANIDIPINE], over 20 µM; as for `CC(CCC(=O)O)C1CCC2C3C(=O)C[C@@H]4CC(=O)CC[C@]4(C)C3CC(=O)[C@]12C` (some centres undefined), over 20 µM.
On the same count and under the same terms, for `CCCC(=O)Nc1ncnc2c1ncn2[C@@H]1O[C@@H]2OP(=O)(O)OC[C@H]2[C@H]1OC(=O)CCC` the value was over 20 µM.
As for `C[C@@H]1N=C(N)O[C@@H]1c1ccccc1` (relative stereo), the IC50 is over 20 µM.
The same measure, in the same setting: for `CC(C)C[C@H](N)C(=O)O` [LEUCINE] the value was over 20 µM; for `Cc1c[nH]c2ccccc12`, over 20 µM; for `CC(C)(C)NCC(O)c1cc(O)cc(O)c1` (centres undefined) [TERBUTALINE], over 20 µM.
`CC(=O)SCCC(=O)N1C(C)CCCC1C(=O)O` (centres undefined) displayed an IC50 of over 20 µM.
Same read-out and setting: as for `CCCC[N+]1(C)[C@@H]2C[C@@H](OC(=O)[C@H](CO)c3ccccc3)C[C@H]1[C@@H]1O[C@@H]12` (some centres undefined) [BUTYLSCOPOLAMINE], the figure is over 20 µM.
Same read-out and setting: for `O=C(/C=C/C=C/c1ccc2c(c1)OCO2)N1CCCCC1` [PIPERINE] the value was over 20 µM.

The same test, now with this note: Severe acute respiratory syndrome coronavirus 2, Vero C1008, 48 h, read-out: pIC50 (converted).
For `Cc1cc(C)cc([C@@H]2CCCN2Cc2ccc(Oc3ccc(C(N)=O)cc3F)cc2)c1` [ATICAPRANT], the IC50 was over 20 µM.
For `CCC(C(=O)O)c1ccc(-c2ccccc2)cc1` (centres undefined) [XENBUCIN], the IC50 was over 20 µM.
The same measure, in the same setting: for `O=C1CN(/N=C/c2ccc(-c3ccc([N+](=O)[O-])cc3)o2)C(=O)N1` [DANTROLENE] the value was over 20 µM; for `COc1cc(NS(=O)(=O)c2ccc(N)cc2)ncn1` [SULFAMONOMETHOXINE], over 20 µM.
Still for that read-out and setting: for `Cc1ccc([C@@H]2O[C@H](CO)[C@@H](O)[C@H](O)[C@H]2O)cc1Cc1ccc(-c2ccc(F)cc2)s1` [CANAGLIFLOZIN ANHYDROUS] the value was over 20 µM.
On the same count and under the same terms, as for `C[C@@H]1O[C@@H](O[C@H]2[C@H](Oc3cc(O)c4c(c3)O[C@H](c3ccc(O)cc3)CC4=O)O[C@H](CO)[C@@H](O)[C@@H]2O)[C@H](O)[C@H](O)[C@H]1O` [NARINGIN], the figure is over 20 µM; as for `COc1ccc2[nH]c([S+]([O-])Cc3ncc(C)c(OC)c3C)nc2n1` (centres undefined) [TENATOPRAZOLE], over 20 µM; as for `O=C1CCC(c2ccc(-n3ccnc3)cc2)=NN1` [IMAZODAN], over 20 µM.
Take `O=C(Nc1ccccc1F)N[C@@H]1N=C(c2ccccc2)c2ccccc2NC1=O`: the IC50 was over 20 µM.
Take `COc1ccc(Cl)cc1NC(=O)Cc1ccc(S(=O)(=O)Nc2ncc(CC(C)C)cn2)cc1`: the IC50 is over 20 µM.
The same measure, in the same setting: as for `CCC(=O)O` [PROPIONIC ACID], the figure is over 20 µM.
The same measure, in the same setting: as for `CCC1(c2ccc(N)cc2)CCC(=O)NC1=O` (centres undefined) [AMINOGLUTETHIMIDE], the figure is over 20 µM; as for `O=C1C=C2C=C[C@@H]3C[C@@]2(O1)[C@H]1CCCCN31` [SECURININE], over 20 µM.
`CNCC(O)c1ccc(O)c(OC)c1` (centres undefined) [METANEPHRINE]: the IC50 was over 20 µM.
Consider `OC(c1ccccc1)(c1ccccc1)[C@@H]1C[C@H]1c1ccncc1`, for which the IC50 is over 20 µM.
Turning to `O=C(O)c1ccccn1` [2-PICOLINIC ACID], the IC50 was over 20 µM.
Regarding `CC(C)c1ncc([N+](=O)[O-])n1C` [IPRONIDAZOLE], the IC50 was over 20 µM.
On the same count and under the same terms, as for `OC(CCN1CCCCC1)(c1ccccc1)C1C[C@@H]2C=C[C@H]1C2` (some centres undefined), the figure is over 20 µM; as for `O=NN(CCCl)C(=O)NC1CCCCC1` [LOMUSTINE], over 20 µM; as for `CC(C)(N)Cc1ccc(Cl)cc1` [CHLORPHENTERMINE], over 20 µM.
Same read-out and setting: for `CCC(Br)(CC)C(=O)NC(N)=O` [CARBROMAL] the value was over 20 µM.
On the same count and under the same terms, as for `CC(=O)Nc1c(I)cc(I)c(C(=O)O)c1I` [ACETRIZOIC ACID], the figure is over 20 µM; as for `O=[N+]([O-])c1cccc2cn[nH]c12` [7-NITROINDAZOLE], over 20 µM.
Regarding `CN(C)C1CC(c2ccccc2)c2ccccc21` (centres undefined), the IC50 was over 20 µM.
The same measure, in the same setting: for `NC(=O)c1cnccn1` [PYRAZINAMIDE] the value was over 20 µM; for `CCOC(=O)C1=C(C)NC(C)=C(C(=O)OCC)C1c1cccnc1SC` [MESUDIPINE], over 20 µM.
As for `Cn1c([N+](=O)[O-])cnc1/C=C/c1ccnc(N)n1` [AZANIDAZOLE], the IC50 is over 20 µM.
Consider `c1ccc2c(c1)CCc1cccc3c1C2CN1CCCCC31` (centres undefined) [TACLAMINE], for which the IC50 is over 20 µM.
For the molecule `CC[N+](CC)(CC)CCC(O)(c1ccccc1)C1CCCCC1` (centres undefined) [TRIDIHEXETHYL], the IC50 was over 20 µM.
Same read-out and setting: as for `CCOc1ccc(Cc2cc([C@@H]3O[C@H](CO)[C@@H](O)[C@H](O)[C@H]3O)ccc2Cl)cc1` [DAPAGLIFLOZIN], the figure is over 20 µM; as for `CC(C)(C)CC(C)(C)c1ccc(O)c(Cc2ccc(Cl)cc2Cl)c1` [CLOFOCTOL], over 20 µM; as for `O=C(O)COc1nn(Cc2ccccc2)c2ccccc12` [BENDAZAC], over 20 µM.
Still for that read-out and setting: for `O=C(O)CCCc1ccc(N(CCCl)CCCl)cc1` [CHLORAMBUCIL] the value was over 20 µM.
Still for that read-out and setting: as for `O=C1C(O)=C([C@H]2CC[C@H](c3ccc(Cl)cc3)CC2)C(=O)c2ccccc21` [ATOVAQUONE], the figure is over 20 µM; as for `Cc1ccnc(N)c1`, over 20 µM.
For `O=[N+]([O-])c1ccc(O)c([N+](=O)[O-])c1` [2,4-DINITROPHENOL], the IC50 is over 20 µM.
In the case of `O=C1NS(=O)(=O)c2ccccc21` [SACCHARIN], the IC50 is over 20 µM.
In the case of `COC(=O)C1=C(C)NC(C)=C(C(=O)OC(C)(C)CN(C)CCC(c2ccccc2)c2ccccc2)C1c1cccc([N+](=O)[O-])c1` (centres undefined) [LERCANIDIPINE], the IC50 was over 20 µM.
For `CC(CCC(=O)O)C1CCC2C3C(=O)C[C@@H]4CC(=O)CC[C@]4(C)C3CC(=O)[C@]12C` (some centres undefined), the IC50 is over 20 µM.
`CCCC(=O)Nc1ncnc2c1ncn2[C@@H]1O[C@@H]2OP(=O)(O)OC[C@H]2[C@H]1OC(=O)CCC`: the IC50 was over 20 µM.
For the molecule `C[C@@H]1N=C(N)O[C@@H]1c1ccccc1` (relative stereo), the IC50 was over 20 µM.
As to `CC(C)C[C@H](N)C(=O)O` [LEUCINE], the IC50 is over 20 µM.
Same read-out and setting: as for `Cc1c[nH]c2ccccc12`, the figure is over 20 µM; as for `CC(C)(C)NCC(O)c1cc(O)cc(O)c1` (centres undefined) [TERBUTALINE], over 20 µM; as for `CC(=O)SCCC(=O)N1C(C)CCCC1C(=O)O` (centres undefined), over 20 µM.
On the same count and under the same terms, for `CCCC[N+]1(C)[C@@H]2C[C@@H](OC(=O)[C@H](CO)c3ccccc3)C[C@H]1[C@@H]1O[C@@H]12` (some centres undefined) [BUTYLSCOPOLAMINE] the value was over 20 µM; for `O=C(/C=C/C=C/c1ccc2c(c1)OCO2)N1CCCCC1` [PIPERINE], over 20 µM.
